According to article PMC7217877, “N-AS-triggered SPMs are direct regulators of microglia in a model of Alzheimer’s disease” (Nature Communications, 2020):
Several values for one entry are separate records, joined by “and”; a condition that tells them apart may be missing. Identical values can stand only once.

What was measured:
[1] = test system: APP/PS1 mice; assay: ac-S565 COX2 in microglia and neuron of treated mice (immunofluorescence, western blot, Fig 4c,d); assay type: in vivo, mouse; settings: APP/PS1 + N-AS, individual values
Text: Adult neurons and microglia were isolated from the mice brain as previously described. In brief, the cortex of WT (1, 3, 5, or 9-months-old), APP/PS1 (1, 3, 5, or 9-months-old), APP/PS1 treated with N-AS (9-months-old) or APP/PS1 treated with aspirin (9-months-old) mice were minced in Hibernate A (Gibco)/B27 (Invitrogen) medium and dissociated using papain (Worthington) solution. After tissue trituration, cells were separated by Optiprep (Sigma-Aldrich) density gradient centrifugation. The purity of the fractionated neurons and microglia were acutely confirmed by neuronal (NeuN, mouse, 1:200, Millipore, MAB377) and microglial (Iba1, rabbit, 1:1000, Wako, 019-19941) markers and the isolated neurons and microglia were acutely analyzed for the acetylation assay and lipid mediators metabololipidomics.
Thioflavin S (Sigma-Aldrich) staining was carried out according to previously described procedures. We used 6E10 (mouse, 1:100, Signet, SIG39300), anti-20G10 (mouse, 1:1000, provided by D. R. Howlett, GlaxoSmithKline, Harlow, Essex, UK) for Aβ42, anti-G30 (rabbit, 1:1000, provided by D. R. Howlett) for Aβ40, SMA (mouse, 1:400, Sigma-Aldrich, A2547), AT8 (mouse, 1:500, Thermo Fisher Scientific, MN1020), Caspase-3 (mouse, 1:200, Novus Biologicals, NB100-56708), ac-S565 (rabbit, 1:100), COX2 (mouse, 1:250, Thermo Fisher Scientific, 35-8200), Iba1 (rabbit, 1:500, Wako, 019-19941 and goat, Abcam, ab5076), NeuN (mouse, 1:500, Millipore, MAB177), GFAP (rabbit, 1:500, Dako, N1506 and chicken, 1:500, Abcam, ab4674), and Lamp1 (mouse, 1:200, Abcam, ab24170). The sections were analyzed with a laser-scanning confocal microscope (FV3000; Olympus) or with a BX51 microscope (Olympus). MetaMorph software (Molecular Devices) was used to quantification. Three-dimensional reconstruction of microglia was recorded and analyzed using IMARIS software (Bitplane)[11]. […]
Samples were lysed in RIPA buffer (Cell signaling Technologies), then subjected to SDS-PAGE and transferred to a nitrocellulose membrane. […] We performed densitometric quantification using the ImageJ software (National Institutes of Health). […]

[2] = test system: APP/PS1 mice; assay: immunofluorescence of 6E10, Aβ40 and Aβ42 (Fig 6b-d); assay type: in vivo, mouse; settings: for 6E10 immunofluorescence quantification (Figure 6b) / Aβ40 immunofluorescence quantification (Figure 6c) / Aβ42 immunofluorescence quantification (Figure 6d): APP/PS1 + N-AS, individual animals
Method: Thioflavin S (Sigma-Aldrich) staining was carried out according to previously described procedures. We used 6E10 (mouse, 1:100, Signet, SIG39300), anti-20G10 (mouse, 1:1000, provided by D. R. Howlett, GlaxoSmithKline, Harlow, Essex, UK) for Aβ42, anti-G30 (rabbit, 1:1000, provided by D. R. Howlett) for Aβ40, SMA (mouse, 1:400, Sigma-Aldrich, A2547), AT8 (mouse, 1:500, Thermo Fisher Scientific, MN1020), Caspase-3 (mouse, 1:200, Novus Biologicals, NB100-56708), ac-S565 (rabbit, 1:100), COX2 (mouse, 1:250, Thermo Fisher Scientific, 35-8200), Iba1 (rabbit, 1:500, Wako, 019-19941 and goat, Abcam, ab5076), NeuN (mouse, 1:500, Millipore, MAB177), GFAP (rabbit, 1:500, Dako, N1506 and chicken, 1:500, Abcam, ab4674), and Lamp1 (mouse, 1:200, Abcam, ab24170). The sections were analyzed with a laser-scanning confocal microscope (FV3000; Olympus) or with a BX51 microscope (Olympus). MetaMorph software (Molecular Devices) was used to quantification. Three-dimensional reconstruction of microglia was recorded and analyzed using IMARIS software (Bitplane)[11]. For the analysis of age-dependent microglial COX2^+ CX3CR1^+ cells in WT and APP/PS1 mice, COX2 (rabbit, 1:100, Abcam, ab15191) and CX3CR1 (mouse, 1:100, BioLegend, 149008) antibody were used and the images were acquired on Alexa 488 and APC Channel with performed using Operetta CLS and Analysis Software 4.5 (Perkin-Elmer).
Transgenic mouse lines over-expressing the hAPP695swe (APP) and presenilin-1M146V (PS1) mutations were originated from GlaxoSmithKline (Harlow, UK)[32] and maintained as described previously. We purchased 5×FAD mice from Jackson Labs (Stock number. 34840-JAX). Because APP/PS1 and 5xFAD mice show sex differences in disease progression, we used only male mice. To examine possible therapeutic effect of N-AS and aspirin in APP/PS1 mice, the N-AS (30 mg kg^−1, Sigma-Aldrich, 01912) was injected daily s.c. for 8 weeks to 7-months-old APP/PS1 mice until the age of 9 months, and aspirin (2 mg kg^−1, Sigma-Aldrich, A5376)[33] was administrated orally to 7-months-old APP/PS1 mice for 8 weeks. Also, to confirm possible therapeutic efficacy of N-AS in 5×FAD, the N-AS (30 mg kg^−1, Sigma-Aldrich, 01912) was injected daily s.c. for 4 weeks to 3-months-old 5×FAD mice until the age of 4 months. Block randomization method was used to allocate the animals to experimental groups. To eliminate the bias, we were blinded in experimental progress such as data collection and data analysis. Mice were housed at temperature of 22 °C and a 12 h day/12 h night cycle with free access to tap water and food pellets. All protocols were approved by the Kyungpook National University Institutional Animal Care and Use Committee.

## CCCCCCCCCCCCC/C=C/[C@@H](O)[C@H](CO)NC(C)=O [N-AS, N-((2S,3R,E)-1,3-Dihydroxyoctadec-4-en-2-yl)acetamide]
[1]
  microglia (Iba1) with ac-S565 and COX2 in cortex, quantification (Fig 4c): 2.146 and 2.677 and 1.427 and 1.497 and 1.3659 and 1.3538
[1]; Microglia
  ac-S565 / total COX2, western blot (Fig 4d): 1.271 and 0.7861 and 0.8284 and 0.7309 and 1.0567 and 1.371
[1]; Neuron
  ac-S565 / total COX2, western blot (Fig 4d): 0.9062 and 0.3691 and 0.5034 and 0.9834 and 0.3378 and 0.4586
[2]; Cortex
  6E10 immunofluorescence quantification (Figure 6b): 0.0608 and 0.09453 and 0.05939 and 0.02037 and 0.005591 and 0.04313 and 0.04886 and 0.06655
  Aβ40 immunofluorescence quantification (Figure 6c): 0.06419 and 0.04296 and 0.0589 and 0.2298 and 0.117 and 0.122 and 0.04359 and 0.05854
  Aβ42 immunofluorescence quantification (Figure 6d): 0.1554 and 0.215 and 0.1788 and 0.1001 and 0.1191 and 0.09457 and 0.1824 and 0.177
[2]; Hippocampus
  6E10 immunofluorescence quantification (Figure 6b): 0.04847 and 0.07321 and 0.02799 and 0.04609 and 0.00742 and 0.009448 and 0.05438 and 0.09253
  Aβ40 immunofluorescence quantification (Figure 6c): 0.07041 and 0.04924 and 0.02685 and 0.04786 and 0.1308 and 0.07762 and 0.09677 and 0.1893 and 0.1045
  Aβ42 immunofluorescence quantification (Figure 6d): 0.2679 and 0.3316 and 0.148 and 0.1454 and 0.2815 and 0.3706 and 0.09586 and 0.279 and 0.395
[2]; N-AS vs vehicle APP/PS1
  Aβ levels by immunofluorescence of 6E10, Aβ40, Aβ42: significantly lower Aβ levels
